Data taken from article PMC7804859, “A metabolically stable apelin-17 analog decreases AVP-induced antidiuresis and improves hyponatremia” (Nature Communications, 2021).
Where “and” joins values, the source holds several entries; their conditions need not be identical. Equal values may be shown once. Read-outs that look alike come from different tables or passages of the source. Ends that are not written are not given here.

How the values were obtained:
anti-K17F serum [1] = details: cited from earlier work; for cross-reactivity with the apelin antiserum: ref De Mota et al, PNAS, 2004
Protocol: The columns were then treated as described in 207 the paragraph above.

anti-K17F serum [2] = test: Inhibition of [125I]-pE13F binding to anti-K17F serum (apelin RIA, cross-reactivity); design: species or system rabbit; details: read-out: IC50, recognition by antibody directed against K17F, antiserum 1/4500
Protocol: (§1) The columns were then treated as described in
(§2) Samples (0.1ml) w ere mixed with 125I-
(§3) 212 used this radioligand instead of [Glp65, Nle75, Tyr77] [125I]-apelin13 since the substitution of
(§4) 214 derivatives as described previously by 3,4.
(§5) 216 incubated for 10 min at room temperature.
(§6) This antiserum identified the apelin present in the
Most of the apelin in human plasma was […]

in vivo [3] = details: rat, in vivo, iv
Protocol: (§7) 187 Apelin radioimmunoassay
(§8) 188 Plasma samples (0.5 ml) were acidified with 0.175 ml of 3 mol/l HCl and stored at -80°C
(§9) 189 until use for apelin RIA. Before thawing the sample on ice, 0.05% BSA was added, and the
(§10) 190 samples were centrifuged at 20000 x g at 4°C for 10 min. The supernatants were collected and
(§11) 191 the pH was adjusted to 6.5 with 10 mol/l NaOH and 2 mol/l Tris-HCl buffer (pH 7.4). Apelin
(§12) 192 was extracted from plasma by mixing the supernatant with 0.3 ml of 0.1% BSA in H2O and 1
(§13) 193 ml of 1% trifluoroacetic acid (TFA) - 0.1% BSA, and running the mixture on a Sep-Pak C18
(§14) 194 cartridge (Waters) previously washed with 2 ml 100% acetonitrile and equilibrated with 5 ml
(§15) 195 1% TFA - 0.1% BSA. The columns then were washed with 3 ml 1% TFA - 0.1% BSA and
(§16) 196 apelin was eluted with 1.5 ml 100% acetonitrile. […]
(§17) 208 Plasma or brain apelin levels w ere deter mined by RIA. Samples (0.1ml) w ere mixed with 125I-
(§18) 211 dilution: 1/4500) to give a total volume of 0.2 ml and were incubated at 4°C overnight. We
as §3, §4
(§19) 215 We then added 0.5 ml of Amerlex (Amersham RPN 510), and the resulting mixture was
(§20) 216 incubated for 10 min at room temperature. The tubes were centrifuged at 2600 x g at 4°C for
217 20 min. The supernatant was removed and the radioactivity of the precipitates was measured.
218 We assessed the cross-reactivity of the apelin antiserum with various N- and C-terminally
232 according to the following equation: [plasma apelin] tx = [plasma apelin] t0 * e(-kt) , where k is
233 the elimination rate constant. […]

rat apelin-R-EGFP = target: T1, rat apelin-R-EGFP (Rattus norvegicus, UniProt Q9JHG3); test: Inhibition of forskolin-induced cAMP production in CHO cells stably expressing rat apelin-R-EGFP (HTRF); type: cell-based; details: 5 µmol/l forskolin, 30 min 20 °C
T1 construct: expressed in transfected cells
T1 sequence (Q9JHG3 1-377): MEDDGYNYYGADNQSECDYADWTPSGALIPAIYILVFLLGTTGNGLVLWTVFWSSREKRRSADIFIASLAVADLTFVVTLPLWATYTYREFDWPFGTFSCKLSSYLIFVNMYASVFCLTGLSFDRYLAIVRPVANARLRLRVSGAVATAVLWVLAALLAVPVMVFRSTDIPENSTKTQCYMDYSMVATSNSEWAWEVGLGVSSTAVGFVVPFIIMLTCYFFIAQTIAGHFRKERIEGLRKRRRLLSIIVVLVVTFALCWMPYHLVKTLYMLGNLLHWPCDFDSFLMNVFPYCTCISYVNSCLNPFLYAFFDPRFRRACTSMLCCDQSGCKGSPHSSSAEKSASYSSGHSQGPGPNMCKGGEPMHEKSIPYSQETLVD
Protocol: (§21) 152 Supplementary Methods
(§22) 154 We quantified cAMP production with the cAMP dynamic 2 assay kit (Cisbio Bioassays,
(§23) 155 Codolet, France), which is based on homogeneous time-resolved fluorescence (HTRF)
156 technology, as previously described 1. For cells expressing the Apelin-R, 2000 CHO cells/well
157 stably expressing rat apelinR-EGFP (clone B70) were added to the 384-well plate and
158 stimulated with 5 µmol/l forskolin (FSK) and various concentrations (0.01 pmol/l to 100 […]
(§24) Cells were then lysed, and
(§25) 165 cAMP levels were determined in accordance with the kit manufacturer’s instructions.
(§26) 166 Stimulation was performed in stimulation buffer-IBMX (SBI) (Hank’s balanced salt solution
(§27) 167 (HBSS-Life Technology), 5 mmol/l Hepes, 0.1% BSA stabilizer (Perkin Elmer), 1 mmol/l
(§28) 168 isobutylmethylxanthine (IBMX, Sigma Aldrich, pH 7.4)). […]

in vivo [4] = details: mouse, in vivo, iv
Protocol: as §7, §8, §9, §10, §11, §12, §13, §14, §15, §16, §17, §18, §3, §4, §19, §20
217 20 min. The supernatant was removed and the radioactivity of the precipitates was measured. […]

rat apelin-R = target: T2, rat apelin-R (Rattus norvegicus, UniProt Q9JHG3); test: Radioligand binding ([125I]-pE13F) to membranes from CHO cells stably expressing rat apelin-R-EGFP; details: 1 h 20 °C, pH 7.4, new batch of LIT01-196
T2 construct: expressed in transfected cells; membrane preparation
T2 sequence (Q9JHG3 1-377): T1 sequence (Q9JHG3 1-377)
Protocol: Membranes from CHO cells stably expressing rat apelin-R-EGFP were prepared as previously described[23]. […] The reaction was stopped by adding ice-cold binding buffer and filtering through Whatman GF/C filters. The filters were washed and radioactivity was counted with a Wizard 1470 Wallac gamma counter (PerkinElmer, Turku, Finland).

human V2-R = target: T3, human V2-R (Homo sapiens, UniProt P30518); test: cAMP production in HEK-293 T cells expressing the human V2-R (HTRF); type: cell-based; details: FSK 5.10-6M
T3 construct: host or cells: HEK-293T cells, transient transfection
T3 sequence (P30518 whole entry): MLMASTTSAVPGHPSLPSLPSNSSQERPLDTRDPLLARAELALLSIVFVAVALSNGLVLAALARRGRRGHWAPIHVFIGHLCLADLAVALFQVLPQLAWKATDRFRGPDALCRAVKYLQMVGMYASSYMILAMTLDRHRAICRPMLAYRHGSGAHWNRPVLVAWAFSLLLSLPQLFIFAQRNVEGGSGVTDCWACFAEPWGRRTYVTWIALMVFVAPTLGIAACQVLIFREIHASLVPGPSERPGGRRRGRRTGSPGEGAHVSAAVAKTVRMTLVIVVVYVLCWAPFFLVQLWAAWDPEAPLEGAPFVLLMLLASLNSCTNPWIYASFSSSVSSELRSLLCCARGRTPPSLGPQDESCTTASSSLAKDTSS
Protocol: as §21, §22, §23
156 technology, as previously described 1. […]
For cells expressing the V2-R, HEK-
160 293T cells were transiently transfected with the human V2-R (cDNA Resource Center), after
161 48h, 4000 cells/well were added to white 384-well optiplates and stimulated either with 5
as §24, §25, §26, §27, §28

hyponatremic rats = test: Plasma AVP and apelin-IR levels in hyponatremic rats (RIA); type: in vivo, rat
Protocol: as §7
(§29) 189 until use for apelin RIA.
(§30) The supernatants were collected and
(§31) The samples were dried and dissolved in
(§32) 201 centrifuged (17000 x g, 4°C, 20 min). The supernatant (4 ml) was collected, and mixed with
as §1, §2, §3, §4, §5, §6
(§33) Most of the apelin in human plasma was
(§34) 252 TechMedILL platfor m (Illkirch) reviewed and approved by the agriculture ministry regulating
(§35) 256 Male Sprague-Dawley rats were killed by decapitation, and trunk blood was collected on ice
(§36) 257 (into 50 µl of 0.3M EDTA (pH 7.4) per 1 ml of blood). Samples were centrifuged (2,600 x g,
(§37) 258 4°C, 20 min), and the resulting plasma was split into 500 µl aliquots, to which we added 168
(§38) 259 µl of 3N HCl before storage at -80°C. The AVP RIA was performed as previously described
(§39) 260 5, using a specific AVP-[Arg8] antibody (final dilution, 1/4.5) and [125I]-(Tyr2Arg8)-AVP
(§40) 261 (2200 Ci/mmol, Perkin-Elmer, Billerica, MA; 15000 dpm) as a tracer. […]

[5] = tested on: hyponatremic rats (AVP 30 ng/h); test: Effects of LIT01-196 and tolvaptan in rat model of AVP-induced hyponatremia; type: in vivo
Protocol: Meloxicam was administered postoperatively for analgesia. Animals were then individually housed in metabolic cages (Techniplast), and given a semi-liquid diet consisting of 25 ml Gel-Diet Breeding-10 (SAFE, Augy, France) mixed with 25 ml tap water per day, with water available ad libitum. Animal weight, water, and food consumption were measured daily. Urine was collected daily, urinary electrolytes (Na^+, K^+, Cl^−) were determined with an ISE 3000 (Caretium Medical Instruments, Shenzhen, China) and urinary osmolality was measured with a Cryobasic 1 osmometer (Astori Tecnica, Poncarale, Italy). Blood samples were collected on ice, before implantation of the osmotic minipump, and before drug administration, under isoflurane anesthesia, from the tail vein (4 µl of lithium heparinate (1600 IU/ml) for 400 µl of blood). The blood samples were immediately centrifuged (4 °C, 2600 × g, 20 min), and plasma electrolyte (Na^+, K^+, Cl^−) levels were quantified with an ISE 3000. On the last day of the experiment, blood was also collected on ice by intracardiac puncture. This blood sample was collected into lithium heparinate under isoflurane anesthesia; plasma electrolyte levels were determined as described above and the animals were immediately killed by carbon monoxide inhalation.

[6] = tested on: normonatremic Sprague-Dawley rats; test: Effects of s.c. administration on metabolic parameters in normonatremic rats; type: in vivo, rat
patients = details: cited from earlier work
control rats = test: Plasma AVP and apelin-IR levels in control rats (RIA); type: in vivo, rat; design: Apelin / AVP: unit not given here
Protocol: as §7, §29, §30, §31, §32, §1, §2, §3, §4, §5, §6, §33, §34, §35, §36, §37, §38, §39, §40

[7] = 900 nmol/kg SC (tolvaptan 0.4.SC [sic]), normonatremic rats, single animals

angiotensin II (DRVYIHPF; Angiotensin-2; UniProt P01019 25-32, looked up)
cross-reactivity with the apelin antiserum (anti-K17F serum [1]): Negligible cross-reactivity

neuropeptide Y
cross-reactivity with the apelin antiserum (anti-K17F serum [1]): Negligible cross-reactivity

K16P: K17F after removal of the phenylalanine residue at the extreme end of the C-terminus (KFRRQRPRLSHKGPMP; UniProt Q9ULZ1 61-76, looked up, fragment)
recognition by antibody directed against K17F (anti-K17F serum [1]): does not recognize
cross-reactivity with the apelin antiserum (anti-K17F serum [1]; pE13F taken as 100%): < 0.3%

angiotensin III (RVYIHPF; Angiotensin-3; UniProt P01019 26-32, looked up)
cross-reactivity with the apelin antiserum (anti-K17F serum [1]): Negligible cross-reactivity

Fluoro-K16P: not recognized by the antibody directed against K17F (KFRRQRPRLSHKGPMP; also: fluorescent label, site and dye not given here; UniProt Q9ULZ1 61-76, looked up, fragment) [reference compound]
IC50 (anti-K17F serum [2]): > 1000 nM

apelin 36: molecular form of apelin identified in vivo (LVQPRGSRNGPGPWQGGRRKFRRQRPRLSHKGPMPF; Apelin-36; UniProt Q9ULZ1 42-77, looked up)
cross-reactivity with the apelin antiserum (anti-K17F serum [1]; pE13F taken as 100%): 100%

CSCC[C@H](NC(=O)[C@@H]1CCCN1C(=O)CNC(=O)[C@H](CCCCN)NC(=O)[C@H](Cc1cnc[nH]1)NC(=O)[C@H](CO)NC(=O)[C@H](CC(C)C)NC(=O)[C@H](CCCNC(=N)N)NC(=O)[C@@H]1CCCN1C(=O)[C@H](CCCNC(=N)N)NC(=O)[C@H](CCC(N)=O)NC(=O)[C@H](CCCNC(=N)N)NC(=O)[C@H](CCCNC(=N)N)NC(=O)[C@H](Cc1ccccc1)NC(=O)[C@@H](N)CCCCN)C(=O)N1CCC[C@H]1C(=O)N[C@@H](Cc1ccccc1)C(=O)O [K17F, reference compound]
half-life (in vivo [3]): 50 s
IC50 (rat apelin-R-EGFP): 0.6 ± 0.2 nM
half-life (in vivo [4]): 44 s
Ki (rat apelin-R): 0.14 ± 0.02 nM

C=C[C@@]1(C)CC(=O)[C@]2(O)[C@@]3(C)[C@@H](O)CCC(C)(C)[C@@H]3[C@H](O)[C@H](OC(C)=O)[C@@]2(C)O1 [FSK]
cAMP production, Value (Fig 2B) (human V2-R; experiment 1): 139.382
cAMP production, Value (Fig 2B) (human V2-R; experiment 2): 85.1109
cAMP production, Value (Fig 2B) (human V2-R; experiment 3): 116.78
cAMP production, Value (Fig 2B) (human V2-R; experiment 4): 128.996

Cc1ccccc1C(=O)Nc1ccc(C(=O)N2CCCC(O)c3cc(Cl)ccc32)c(C)c1 (stereo not shown) [tolvaptan, reference compound]
plasma AVP and apelin levels versus AVP + saline (hyponatremic rats; 6700 nmol/kg s.c., 3 h): similar
Plasma AVP (hyponatremic rats; AVP 30 ng/h rats, individual animals (Fig. 6A source data)): 39.2062 and 41.6048 and 44.1878 and 29.3355 and 51.7522 and 30.996 and 44.9258 and 45.018
Plasma apelin (hyponatremic rats; AVP 30 ng/h rats, individual animals (Fig. 6B source data)): 312 and 375 and 335 and 404 and 283 and 315 and 384 and 365
Apelin to AVP ratio (hyponatremic rats; AVP 30 ng/h rats, individual animals (Fig. 6C source data)): 7.958 and 9.013 and 7.581 and 13.7717 and 5.468 and 10.1626 and 8.547 and 8.108
increase in urine output 24 h after s.c. administration ([5]; 900 nmol/kg s.c., rats receiving 30 ng/h AVP and liquid diet): 9.5 ± 2.9 ml/24 h/100 g
increase in urine output 24 h after s.c. administration ([5]; 6700 nmol/kg s.c., rats receiving 30 ng/h AVP): 27 ± 9.0 ml/24 h/100 g
Urine osmolality (3 hours) [6, 7]: 400 and 540 and 520 and 404 and 412
Urine osmolality (6 hours) [6, 7]: 484 and 656 and 532 and 492 and 496
Urine osmolality (24 hours) [6, 7]: 772 and 1396 and 1244 and 1552 and 1324 and 1300 and 1592 and 1040 and 1416 and 1184 and 2300 and 1048
increase in water intake ([6]; 900 nmol/kg s.c., 24 h): 37%
increase in water intake to food intake ratio ([6]; 900 nmol/kg s.c., 24 h): 24%
increase in 24-h urine output relative to saline ([6]; 900 nmol/kg s.c., normonatremic rats): 77%
decrease in urine osmolality ([6]; 900 nmol/kg s.c., normonatremic rats, 24 h): 40%
Sodium excretion fraction ([6]; LIT01-196 900 nmol/kg, tolvaptan 6700 nmol/kg s.c., 24 h): not changed
Water excretion fraction ([6]; Tolvaptan 6700 nmol/kg SC, individual animals (Fig. S4C source data)): 0.8154 and 1.026 and 2.311 and 0.5818 and 0.7955 and 0.7
Sodium excretion fraction ([6]; Tolvaptan 6700 nmol/kg SC, individual animals (Fig. S4D source data)): 0.6016 and 0.6502 and 0.5049 and 0.3349 and 0.4657 and 0.6432
Water to food ratio ([6]; normonatremic rats, 900 nmol/kg SC, individual animal values (source data Fig. 4L)): 1.532 and 1.653 and 1.89 and 1.641 and 1.608
patients with overly rapid sodium correction (patients; 7.5 mg per day, hyponatremia patients, baseline serum sodium <125 mmol/l): 23%
patients with ADPKD discontinuing treatment for aquaresis-related events (patients): 8%
plasma apelin-IR levels versus control rats (control rats; 3 h after 6700 nmol/kg s.c.): similar
plasma apelin/AVP ratio versus saline (control rats; 3 h after 6700 nmol/kg s.c.): similar
plasma AVP levels, higher than in animals receiving saline (control rats; 3 h after s.c., tolvaptan 6700 nmol/kg, LIT01-196 900 nmol/kg): 147%
AVP (control rats; plasma AVP, Tolvaptan 6700 nmol/kg SC, individual animals (Fig. S4F source data)): 46.8225 and 42.0318 and 57.2512 and 20.2981 and 21.5164 and 46.682
Apelin (control rats; plasma apelin-IR, Tolvaptan 6700 nmol/kg SC, individual animals (Fig. S4E source data)): 782.319 and 460.81 and 574.125 and 749.499 and 564.407 and 576.365
apelinAVPratio (control rats; plasma apelin/AVP ratio, Tolvaptan 6700 nmol/kg SC, individual animals (Fig. S4G source data)): 16.7082 and 10.9634 and 10.0282 and 36.9246 and 26.2315 and 12.3466
